Several values for one entry are separate records, joined by “and”; a condition that tells them apart may be missing. Identical values can stand only once. Like-named read-outs stand apart in the source and are kept apart here.
Assays:
[1] = Stability in mouse plasma and urine; type: in vitro ADME; settings: for stability in urine stored frozen: mice urine, −20 °C
Procedure: The extraction recovery, established on QCs at the concentrations of LLOQ (i.e., 5 ng/mL), at 15 and 250 ng/mL, fell in the range 88.9%–94.6% and 87.9%–117.5% for ZST316 and ZST152, respectively. The LLOQ in plasma was 5.0 ng/mL for both compounds, with precision of 7.1% and 4.1% and accuracy of 95.8% and 106.1% (n = 6) for ZST316 and ZST152, respectively (Table 1). We decided to validate this value as LLOQ even though the limit of detection (LOD) reached in the initial set up phase of the methods was established for both compounds at 1 ng/mL (S/N > 4.0). However, such sensitivity was not required as the expected range of activity (IC50) was markedly higher than the LLOQ value for both compounds. The linearity of the method, evaluated over three different analytical runs in the concentration range 5.0–500.0 ng/mL, was acceptable for both analytes, with an average coefficient of determination (R^2) of 0.990 and 0.992 for ZST316 and ZST152, respectively. […] Both ZST316 and ZST152 were stable in frozen plasma for at least one month at −20 °C. No chromatographic carry-over effect was observed injecting a blank sample after the highest standard calibration point. The method was considered suitable for preclinical pharmacokinetic investigations.
Both ZST316 and ZST152 were stable at 37 °C in mice urine for at least 24 h and stored frozen at −20°C for one month. No chromatographic carry-over effect was observed injecting a blank sample after the highest standard calibration point.

[2] = Plasma pharmacokinetics and urinary elimination after single oral and intravenous administration; type: in vivo, FVB mice; settings: for urinary excretion, range over oral and intravenous route: 24 h urine, p.o. 60 mg/Kg to i.v. 30 mg/Kg; for clearance: read-out: Clp (plasma clearance) (converted); for Vd: read-out: Vd (volume of distribution); for bioavailability: oral, 60 mg/Kg, read-out: F % (bioavailability); for time up to which detectable in plasma: concentration close to the LLOQ (5 ng/mL)
Procedure: Mice were treated with ZST316 and ZST152 using a dose of 60 mg/Kg (oral gavage) and 30 mg/Kg (intravenous bolus). For pharmacokinetic sampling, blood was collected at 15 and 30 min, and 1, 3, 8, and 24 h post dose. Three mice were analyzed per each time point. After the animals were anesthetized with isoflurane, the blood was drained from the retro-orbital plexus into heparinized tubes, and then centrifuged for 10 min at 4000× g at 4 °C to separate plasma. A 24-h urine fraction was collected in three mice for each drug and route of administration. Plasma and urine samples were stored at −20 °C until analysis by HPLC-MS/MS.
In the preliminary phase of the method set up, we tried different solvents, 2-propanol, methanol (CH3OH), and acetonitrile (CH3CN) at different pH conditions, quickly obtaining a satisfactory recovery with CH3OH: 0.1% formic acid (HCOOH). Briefly, to assay ZST316, 10 µL of IS (ZST152 WS: 500 ng/mL) were added to 100 µL of plasma study samples, standards, or QCs in a polypropylene tube. The sample was then added with 10 µL of ammonium formate (NH4HCO2) 50 mM, mixed by vortex and added with 400 µL CH3OH: 0.1% HCOOH, vortex mixed again for 30 s and centrifuged at 13,200 rpm for 10 min at 4 °C. A volume of 450 µL of the supernatant was transferred to a new polypropylene tube, dried under nitrogen flow, and reconstituted with 100 µL of MP A:B (1:1, v/v). Finally, the mixed samples were centrifuged at 13,200 rpm for 10 min at 4 °C and the supernatant was transferred into glass vials for HPLC-MS/ MS analysis. Plasma samples containing drug concentrations above the highest standard point of the calibration curve were reanalyzed following dilution with the control matrix.
To assay ZST316, 5 µL of IS (ZST152 WS: 100 µg/mL) were added to 50 µL of urine samples, standards, or QCs in a polypropylene tube. After vortex mixing, 490 µL of MP A:B (1:1; v/v) were added to 10 µL of each sample to obtain a final dilution of 1:50. Samples were vortex mixed again for 30 s, centrifuged at 13,200 rpm for 10 min at 4 °C, and, finally, the supernatant was transferred into glass vials for HPLC-MS/ MS analysis. The urine samples with drug concentrations above the highest standard point of the calibration curve were reanalyzed following dilution with control matrix.
[…] chromatography was performed using a series 200 HPLC system (Perkin Elmer, Waltham, MA, USA) under gradient conditions with separation on a HILIC column, 3 µm, 100 A, 2.1 × 150 mm (Waters, Milford, MA, USA), coupled with a 3 µm, 3.9 × 5.0 mm guard column of the same material at the flow rate of 0.2 mL/min. Gradient features: 10% mobile phase (MP) A (NH4HCO2 10 mM, 10% CH3CN, 0.1% HCOOH) and 90% MP B (CH3CN, 0.1% HCOOH) as the initial constant condition; then to 90% MP A in 6 min and the constant condition for 1.5 min. Return to the start condition in 0.5 min and conditioning for 5.5 min. Total run time: 13.5 min. Mass spectrometric detection was performed using an API 4000 triple quadrupole mass spectrometer (SCIEX, Framingham, MA, USA) supplied with a Turbo Ion Spray source set at 350 °C and −4200 V, analyzing biological samples with electrospray ionization (ESI) operating in negative ion mode. Purified air was used as nebulizer gas (Gas 1) and heater gas (Gas 2) and N2 was used as curtain gas and collision activated dissociation gas. They were set to 40, 50, 20, and 4 instrument units (psi), respectively. The declustering potential (DP) was set at −119 V and the collision exit potential (CXP) at –10 V. All parameters of the source were defined by direct infusion of ZST316 and ZST152 1 µg/mL in mobile phase B. The final quantification was carried out in Selected Reaction Monitoring (SRM) with the following transitions: m/z 307.9 → 208.0 (collision energy of −29.5 eV) for ZST316 and m/z 271.9 → 170.9 (collision energy −24.7 eV) for ZST152 (Figure 2 and Figure 3). Data were processed with the software package Analyst 1.6.2 (AB SCIEX). […]

[3] = test system: cancer cells; settings: cited from earlier work; for degradation in the culture media: culture media of cancer cell experiments
[4] = FVB, mouse, plasma, iv, 30 mg/kg, i.v. 30 mg/Kg, single bolus
[5] = FVB, mouse, plasma, iv, 30 mg/kg, i.v. 30 mg/Kg, read-out: AUC 0-8h
[6] = FVB, mouse, plasma, iv, 30 mg/kg, i.v. 30 mg/Kg, read-out: AUC 0-last
[7] = FVB, mouse, plasma, iv, 30 mg/kg, i.v. 30 mg/Kg, read-out: Half-life (converted)
[8] = FVB, mouse, plasma, iv, i.v. 30 mg/Kg
[9] = FVB, mouse, plasma, p.o. 60 mg/Kg vs i.v. 30 mg/Kg, dose normalized
[10] = FVB, mouse, plasma, po, 60 mg/kg, p.o. 60 mg/Kg, read-out: AUC 0-8h
[11] = FVB, mouse, plasma, po, 60 mg/kg, p.o. 60 mg/Kg, read-out: AUC 0-last
[12] = FVB, mouse, plasma, po, 60 mg/kg, p.o. 60 mg/Kg, read-out: Half-life (converted)
[13] = FVB, mouse, plasma, po, p.o. 60 mg/Kg

| SMILES | stability in mice urine at 37 °C [1] | stability in urine stored frozen [1] | urinary excretion, range over oral and intravenous route [2] | Cmax [2, 4] [ng/mL] | AUC(0-t) [2, 5] [ng·h/mL] | AUC(0-t) [2, 6] [ng·h/mL] | half-life [2, 7] [min] | AUC(0-inf) [2, 8] [ng·h/mL] | Tmax [2, 8] [min] | clearance [2, 8] [mL/min/kg] | Vd [2, 8] [L/kg] | bioavailability [2, 9] [%] | AUC(0-t) [2, 10] [ng·h/mL] | AUC(0-t) [2, 11] [ng·h/mL] | half-life [2, 12] [min] | AUC(0-inf) [2, 13] [ng·h/mL] | Tmax [2, 13] [min] | 24 h urinary excretion (% of dose) ([2]; i.v. 30 mg/Kg) | time up to which detectable in plasma ([2]; i.v. 30 mg/Kg) [h] | 24 h urinary excretion (% of dose) ([2]; p.o. 60 mg/Kg) | further results |
| --- | --- | --- | --- | --- | --- | --- | --- | --- | --- | --- | --- | --- | --- | --- | --- | --- | --- | --- | --- | --- | --- |
| COCCNC(=N)NCCC[C@H](N)c1noc(=O)[nH]1 [ZST152] | at least 24 h | one | 12.5%–22.2% and 12.5–22.2% | 24900 | 9250 | 9250 | 72 | 9260 | 5 | 54 | 5.49 | 33 | 6170 | 6170 | 51.6 | 6180 | 15 | 22.2 % of dose | 8 | 12.5 % of dose | half-life ([2]; i.v. 30 mg/Kg, 30 mg/kg): 70.2 min; time up to which measurable in plasma ([2]; p.o. 60 mg/Kg): 8 h; F % (bioavailability) ([2]; p.o. 60 mg/Kg vs i.v. 30 mg/Kg, dose normalized): 33.3%; urinary excretion relative to that of ZST316 ([2]; regardless of the route of administration): four- to fivefold; penetration of the cell membrane of cancer cells and intracellular DDAH1 inhibition [3]: able to successfully penetrate the cell membrane of cancer cells and inhibit DDAH1 intracellularly; degradation in the culture media [3]: did not significantly degrade |
| COCCNC(=N)NCCC[C@H](N)C(=O)NS(C)(=O)=O [ZST316] | at least 24 h | one | 2.3%–7.5% and 2.3–7.5% | 67400 | 21400 | 21500 | 360 | 21600 | 5 | 23.2 | 12.2 | < 5 | 1940 | 1940 | 97.8 | 2010 | 30 | 7.5 % of dose | 24 | 2.3 % of dose | Cmax ([2]; FVB, mouse, plasma, po, 60 mg/kg, p.o. 60 mg/Kg, single dose): 1020 ng/mL; concentration at 8 h ([2]; FVB, mouse, plasma, po, p.o. 60 mg/Kg, 8 h post dose): 29 ng/mL; AUC after intravenous administration relative to that of ZST152 ([2]; i.v. 30 mg/Kg): approximately twice; time up to which measurable in plasma ([2]; p.o. 60 mg/Kg): 8 h; penetration of the cell membrane of cancer cells and intracellular DDAH1 inhibition [3]: able to successfully penetrate the cell membrane of cancer cells and inhibit DDAH1 intracellularly; degradation in the culture media [3]: did not significantly degrade |

— article PMC8840040, “Pharmacokinetic Characterization of the DDAH1 Inhibitors ZST316 and ZST152 in Mice Using a HPLC-MS/MS Method” (Molecules, 2022)
